Assay results reported in US10407467B2, “Polymyxin derivatives and their use in combination therapy together with different antibiotics” (priority 2013, dated 2019).
Like-named read-outs stand apart in the source and are kept apart here. Marks after values point to notes of the source that are not given here. Bridge positions count the residues as written; N and C are the ends. Square brackets hold non-standard residues; d marks the D form. Peptide text beside a SMILES is read from it. * marks the point of attachment. ξ: configuration not given here. ξβ3hGly(cHex) = NC(CC(=O)*)C1CCCCC1; Thr(3ξ) = CC(O)[C@H](N)C(=O)O; Dab = NCC[C@H](N)C(=O)O

What was measured:
[1] = tested on: Klebsiella pneumoniae ATCC10031; details: 10 mg/kg/day, neutropenic mice thigh infection
[2] = rats, 8 mg/kg BID regimen, seven days, compared to Colistin at the same dose regimen
Procedure: After one week acclimatisation, male Sprague-Dawley rats were surgically prepared with a jugular cannula and were housed individually, as required, either in pre-assigned housing cages or metabolic cages. Colistin and the Example Compounds were prepared in saline.
Compounds were introduced via the jugular cannula twice a day 7 hours apart for seven days. Each dose was increased progressively for three days up to the top dose that was then administered until termination of the study. Twenty-four hour urine collection (on ice) was performed at pre-dose and on days 4 and 7. The dose regimen is set out in Table 10 below.
The doses in the table are indicated in mg drug base/kg (free base).
The activity in urine of the N-acetyl-beta-D-glucosaminidase (NAG) was determined spectrophotometrically using the NAG assay kit from Roche Applied Science. Biomarkers of kidney injury were determined using the Kidney Injury Panel II from the Multi-Spot® Assay System (Meso Scale Discovery).

HK-2 cell line = assay: In vitro renal cell toxicity assay (resazurin reduction); assay type: cell-based, human; details: HK-2 cells, 24 h, resazurin reduction; mean values of up to 6 independent studies
E. coli ATCC25922 = tested on: E. coli ATCC25922
Procedure: Mice were rendered temporarily neutropenic by immunosuppression with cyclophosphamide at 150 mg/kg 4 days before infection and 100 mg/kg 1 day before infection by intraperitoneal injection.
Compounds were administered in solution by intravenous (IV) injection into the lateral tail vein. […] The vehicle control group was treated with vehicle (0.9% saline for injection) also at 10 mL/kg IV thrice at 1, 3.5 and 6 hours post infection.
(§1) At 1 hour post infection, 4 animals were humanely euthanized using pentabarbitone overdose to provide a pre-treatment control group. At 9 hours post infection, the clinical condition of all animals was assessed prior to them being humanely euthanized by pentabarbitone overdose. Animal weight was determined before both thighs were removed and weighed individually. Individual thigh tissue samples were homogenized in ice cold sterile phosphate buffered saline. Thigh homogenates were then quantitatively cultured onto CLED agar and incubated at 37° C. for 24 hours before colonies were counted.

P. aeruginosa ATCC27853 = assay type: in vivo, Pseudomonas aeruginosa; details: 1:1 with rifampicin at a total dose of 5 mg/kg, IV at 1, 3.5 and 6 hours
Procedure: as §1, with “Compounds were administered in solution by intravenous (IV) bolus injection into the lateral tail vein. […] At 1” for “At 1”

Row | Compound | reduction in bacterial counts [1] | levels of the renal biomarkers NAG, albumin and cystatin C in urine [2] | IC50 HK-2 cells (HK-2 cell line) | log reduction in bacterial counts compared to the non-treated control (E. coli ATCC25922; 1:1 combination with Rifampicin at 4 mg/Kg total dose) [log] | Log reduction from vehicle (CFU/g) (E. coli ATCC25922; Table 9, monotherapy 0.125 mg/kg IV at 1, 3.5 and 6 h post infection, 9 h) [log CFU/g] | Log reduction from vehicle (CFU/g) (E. coli ATCC25922; Table 9, monotherapy 0.5 mg/kg IV at 1, 3.5 and 6 h post infection, 9 h) [log CFU/g] | Log reduction from vehicle (CFU/g) (E. coli ATCC25922; Table 12, alone 4 mg/kg (sulfate salt) IV) [log CFU/g] | log reduction in bacterial counts compared to non-treated control (P. aeruginosa ATCC27853) [log] | Log reduction from vehicle (CFU/g) (P. aeruginosa ATCC 27853; Table 14, 1 mg/kg (sulfate salt) IV at 1, 3.5 and 6 h, 9 h) [log CFU/g] | Log reduction from vehicle (CFU/g) (P. aeruginosa ATCC 27853; Table 14, 2 mg/kg (sulfate salt) IV at 1, 3.5 and 6 h, 9 h) [log CFU/g] | Log reduction from vehicle (CFU/g) (P. aeruginosa ATCC 27853; Table 14, 4 mg/kg (sulfate salt) IV at 1, 3.5 and 6 h, 9 h) [log CFU/g] | Log reduction from vehicle (CFU/g) (P. aeruginosa ATCC 27853; Table 15, 1 mg/kg (sulfate salt) IV, 9 h) [log CFU/g] | Log reduction from vehicle (CFU/g) (P. aeruginosa ATCC 27853; Table 15, 2 mg/kg (sulfate salt) IV, 9 h) [log CFU/g] | Log reduction from vehicle (CFU/g) (P. aeruginosa ATCC 27853; Table 15, 4 mg/kg (sulfate salt) IV, 9 h) [log CFU/g] | Log reduction from vehicle (CFU/g) (P. aeruginosa ATCC 27853; Table 16, 0.85 mg/kg free base equivalent, infection level ~1×10^4 CFU/mouse thigh) [log CFU/g] | Log reduction from vehicle (CFU/g) (P. aeruginosa ATCC 27853; Table 16, 3.4 mg/kg free base equivalent, infection level ~1×10^4 CFU/mouse thigh) [log CFU/g]
1 | CC(C)C[C@@H]1NC(=O)[C@@H](Cc2ccccc2)NC(=O)[C@H](CCN)NC(=O)[C@@H](NC(=O)[C@H](CCN)NC(=O)[C@@H](NC(=O)CC(N)C2CCCCC2)C(C)O)CCNC(=O)[C@H](C(C)O)NC(=O)[C@H](CCN)NC(=O)[C@H](CCN)NC1=O (stereo partly drawn) [Example 10, [3(R,S)-3-Amino-3-cyclohexane-propanoyl]Polymyxin B nonapeptide] ({ξβ3hGly(cHex)}-[Thr(3ξ)][Dab][Dab][Dab][dF]L[Dab][Dab][Thr(3ξ)]; lactam 3-C) | approx. 2 log10 | significantly reduced levels |  |  |  |  |  |  |  |  |  |  |  |  |  | 
2 | Polymyxin B [reference compound] |  |  | 11^b μg/mL | 4.8 | −0.36 | 1.93 | 3.61 | 5.37 | 0.58 | 1.67 | 5.09 | −0.12 | 1.40 | 3.41 | 1.19 | 4.23
